Results from the supplement of paper PMC5908809.

Tests used:
[1] = tested on: normal NK cells expanded with K562-aAPC; assay: drug sensitivity score (DSS) (DSS units); higher = more sensitive; extreme values may be limits of the assay; conditions: 72 h; IL-2 2.5 ng/mL
Procedure: (§1)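 Drug sensitivity and resistance testing on K562-aAPC-expanded normal NK cells: 5 concentrations (10-fold steps over a 10,000-fold range), 72 h at 37 °C, viability by CellTiter-Glo normalised to DMSO and benzethonium chloride controls; DSS from the fitted curve.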

DERL-7 (IL-2 2.5 ng/mL) [2] = assay: as above; conditions: 72 h
[3] = tested on: normal primary NK cells, pool 2 (3 donors) (IL-2 2.5 ng/mL); assay: as above; conditions: 72 h
[4] = tested on: normal primary NK cells, pool 1 (3 donors), resting (IL-2 0 ng/mL); assay: as above; conditions: 72 h
NKL (IL-2 2.5 ng/mL) [5] = assay: as above; conditions: 72 h
SNK-6 (IL-2 2.5 ng/mL) [6] = assay: as above; conditions: 72 h
KHYG-1 (IL-2 2.5 ng/mL) [7] = assay: as above; conditions: 72 h
IMC-1 (IL-2 20 ng/mL) [8] = assay: as above; conditions: 72 h
NK-92 (IL-2 2.5 ng/mL) [9] = assay: as above; conditions: 72 h
KAI3 (IL-2 2.5 ng/mL) [10] = assay: as above; conditions: 72 h
YT (IL-2 2.5 ng/mL) [11] = assay: as above; conditions: 72 h
[12] = tested on: normal primary NK cells, pool 3 (3 donors) (IL-2 2.5 ng/mL); assay: as above; conditions: 72 h
[13] = tested on: normal primary NK cells, pool 1 (3 donors) (IL-2 2.5 ng/mL); assay: as above; conditions: 72 h
NK-YS (IL-2 2.5 ng/mL) [14] = assay: as above; conditions: 72 h
DERL-7 (IL-2 2.5 ng/mL) [15] = assay: percent inhibition of viability; higher = more inhibition; conditions: 72 h
[16] = tested on: normal primary NK cells, pool 2 (3 donors) (IL-2 2.5 ng/mL); assay: as above; conditions: 72 h
[17] = tested on: normal primary NK cells, pool 1 (3 donors), resting (IL-2 0 ng/mL); assay: as above; conditions: 72 h
NKL (IL-2 2.5 ng/mL) [18] = assay: as above; conditions: 72 h
SNK-6 (IL-2 2.5 ng/mL) [19] = assay: as above; conditions: 72 h
KHYG-1 (IL-2 2.5 ng/mL) [20] = assay: as above; conditions: 72 h
IMC-1 (IL-2 20 ng/mL) [21] = assay: as above; conditions: 72 h
NK-92 (IL-2 2.5 ng/mL) [22] = assay: as above; conditions: 72 h
KAI3 (IL-2 2.5 ng/mL) [23] = assay: as above; conditions: 72 h
YT (IL-2 2.5 ng/mL) [24] = assay: as above; conditions: 72 h
[25] = tested on: normal primary NK cells, pool 3 (3 donors) (IL-2 2.5 ng/mL); assay: as above; conditions: 72 h
[26] = tested on: normal primary NK cells, pool 1 (3 donors) (IL-2 2.5 ng/mL); assay: as above; conditions: 72 h
NK-YS (IL-2 2.5 ng/mL) [27] = assay: as above; conditions: 72 h
[28] = tested on: normal NK cells expanded with K562-aAPC; assay: as above; conditions: 72 h, IL-2 2.5 ng/mL
Procedure: as §1

C=CC(=O)Nc1cc2c(Nc3ccc(F)c(Cl)c3)ncnc2cc1OCCCN1CCOCC1 [Canertinib] (max concentration tested 10000 nM)
Conditions | drug sensitivity score
DERL-7 (IL-2 2.5 ng/mL) [2] | 10.9
IMC-1 (IL-2 20 ng/mL) [8] | 4.78
KAI3 (IL-2 2.5 ng/mL) [10] | 11.2
KHYG-1 (IL-2 2.5 ng/mL) [7] | 6.47
NK-92 (IL-2 2.5 ng/mL) [9] | 10.8
NK-YS (IL-2 2.5 ng/mL) [14] | 8.03
NKL (IL-2 2.5 ng/mL) [5] | 10.3
SNK-6 (IL-2 2.5 ng/mL) [6] | 5.87
YT (IL-2 2.5 ng/mL) [11] | 8.07
[1] | 9.72
[3] | 12.6
[4] | 16.2
[12] | 10.3
[13] | 15.9

percent inhibition of viability [%]
Conditions | 1 nM | 10 nM | 100 nM | 1000 nM | 10000 nM
DERL-7 (IL-2 2.5 ng/mL) [15] | -1.22 | 3.31 | 7.19 | 46.1 | 101
IMC-1 (IL-2 20 ng/mL) [21] | -13.9 | -4.18 | -9.88 | -11.9 | 99.7
KAI3 (IL-2 2.5 ng/mL) [23] | -7.79 | -2.37 | 3.26 | 43.7 | 104
KHYG-1 (IL-2 2.5 ng/mL) [20] | -9.72 | -6.52 | -7.64 | 4.13 | 105
NK-92 (IL-2 2.5 ng/mL) [22] | 3.42 | 2.68 | 6.81 | 39.8 | 104
NK-YS (IL-2 2.5 ng/mL) [27] | -6.82 | -1.19 | -0.2 | 14.6 | 103
NKL (IL-2 2.5 ng/mL) [18] | -12.1 | -11.6 | -5.5 | 34.5 | 106
SNK-6 (IL-2 2.5 ng/mL) [19] | -13 | -20.2 | -15.9 | 2.62 | 99.5
YT (IL-2 2.5 ng/mL) [24] | -5.49 | -3.57 | 3.25 | 14.8 | 103
[16] | -7.41 | -1.65 | 8.39 | 58.4 | 96.8
[17] | 2.65 | 15.7 | 18.4 | 74.2 | 97
[25] | -4.75 | 1.46 | 0.7 | 34.3 | 99.2
[26] | -5.89 | 6.82 | 13.3 | 76.1 | 99.2
[28] | -1.69 | -1.95 | -1.57 | 28.3 | 100

CC1=C(/C=C/C(C)=C/C=C/C(C)=C/C(=O)O)C(C)(C)CCC1 [Tretinoin] (max concentration tested 10000 nM)
Conditions | drug sensitivity score
DERL-7 (IL-2 2.5 ng/mL) [2] | 0
IMC-1 (IL-2 20 ng/mL) [8] | 0
KAI3 (IL-2 2.5 ng/mL) [10] | 0.68
KHYG-1 (IL-2 2.5 ng/mL) [7] | 4.32
NK-92 (IL-2 2.5 ng/mL) [9] | 0
NK-YS (IL-2 2.5 ng/mL) [14] | 2.28
NKL (IL-2 2.5 ng/mL) [5] | 4.28
SNK-6 (IL-2 2.5 ng/mL) [6] | 0
YT (IL-2 2.5 ng/mL) [11] | 0
[1] | 0
[3] | 0
[4] | 3.02
[12] | 0
[13] | 0

percent inhibition of viability [%]
Conditions | 1 nM | 10 nM | 100 nM | 1000 nM | 10000 nM
DERL-7 (IL-2 2.5 ng/mL) [15] | 0.02 | -9.97 | -17.2 | -1.93 | 1.55
IMC-1 (IL-2 20 ng/mL) [21] | -5.65 | -8.65 | -8.92 | -15.6 | -11.9
KAI3 (IL-2 2.5 ng/mL) [23] | -2.48 | -3.65 | -1.2 | 3.75 | 16
KHYG-1 (IL-2 2.5 ng/mL) [20] | -3.1 | -0.61 | 11.5 | 20.8 | 33
NK-92 (IL-2 2.5 ng/mL) [22] | -0.77 | -12.9 | -9.35 | 0.15 | -0.14
NK-YS (IL-2 2.5 ng/mL) [27] | -3.42 | -0.23 | 9.86 | 11.1 | 28.9
NKL (IL-2 2.5 ng/mL) [18] | -12.8 | -0.36 | -1.84 | 17.5 | 39.7
SNK-6 (IL-2 2.5 ng/mL) [19] | -9.38 | 11.7 | 19.6 | -4.95 | 10.5
YT (IL-2 2.5 ng/mL) [24] | -1.46 | -2.61 | -3.8 | -1.99 | 3.09
[16] | -8.71 | -3.05 | -10.2 | -13.1 | 1.08
[17] | -8.15 | -5.96 | -18.7 | 18.4 | 26.4
[25] | -4.65 | -2.78 | -10.4 | -7.74 | -8.57
[26] | -4.29 | -17 | -11.3 | -4.32 | 10.6
[28] | -4.58 | -6.04 | -10.1 | -14.2 | -11.4

C[C@H]1C[C@@H]2[C@H]([C@@H](O)C[C@@]3(C)[C@H]2CC[C@]3(O)C(=O)CO)[C@@]2(C)C=CC(=O)C=C12 [Methylprednisolone] (max concentration tested 10000 nM)
Conditions | drug sensitivity score
DERL-7 (IL-2 2.5 ng/mL) [2] | 32.1
IMC-1 (IL-2 20 ng/mL) [8] | 0
KAI3 (IL-2 2.5 ng/mL) [10] | 2.54
KHYG-1 (IL-2 2.5 ng/mL) [7] | 10.5
NK-92 (IL-2 2.5 ng/mL) [9] | 0
NK-YS (IL-2 2.5 ng/mL) [14] | 0.89
NKL (IL-2 2.5 ng/mL) [5] | 23
SNK-6 (IL-2 2.5 ng/mL) [6] | 0.13
YT (IL-2 2.5 ng/mL) [11] | 10.3
[1] | 20.6
[3] | 21.3
[4] | 31.7
[12] | 13.5
[13] | 23.3

percent inhibition of viability [%]
Conditions | 1 nM | 10 nM | 100 nM | 1000 nM | 10000 nM
DERL-7 (IL-2 2.5 ng/mL) [15] | -1.31 | 19 | 94 | 100 | 101
IMC-1 (IL-2 20 ng/mL) [21] | -4.86 | -2.72 | -15.2 | -4.89 | -2.93
KAI3 (IL-2 2.5 ng/mL) [23] | -8.86 | -6.63 | -0.28 | 7.95 | 30.7
KHYG-1 (IL-2 2.5 ng/mL) [20] | -4.65 | 5.05 | 18.2 | 46 | 55.1
NK-92 (IL-2 2.5 ng/mL) [22] | -14.6 | -20.1 | -27.4 | -10.6 | 3.24
NK-YS (IL-2 2.5 ng/mL) [27] | -6.22 | -4.6 | 0.39 | 6.37 | 16.5
NKL (IL-2 2.5 ng/mL) [18] | 4.02 | 31.1 | 57 | 63.6 | 67.6
SNK-6 (IL-2 2.5 ng/mL) [19] | 7.96 | -13.3 | -4.6 | -6.43 | 15.4
YT (IL-2 2.5 ng/mL) [24] | -5.71 | 10.2 | 19.4 | 43.3 | 53.1
[16] | -6.66 | 20.1 | 52.2 | 69.9 | 76.8
[17] | -1.18 | 47.6 | 75.4 | 84.2 | 87.2
[25] | -7.17 | 8.16 | 33.7 | 46.2 | 58.4
[26] | 6.03 | 24 | 56.2 | 75.3 | 81.7
[28] | -4.84 | 16.6 | 51.6 | 67.2 | 74.4
